Molecules are shown by their SMILES.

Common to all, as to test: Kinase profiling screen (radioactive filter-binding assay)
Common to all, as to assay type: biochemical

The target of one assay is T1, SGK1 (Homo sapiens, UniProt O00141).
T1 sequence (O00141 1-431): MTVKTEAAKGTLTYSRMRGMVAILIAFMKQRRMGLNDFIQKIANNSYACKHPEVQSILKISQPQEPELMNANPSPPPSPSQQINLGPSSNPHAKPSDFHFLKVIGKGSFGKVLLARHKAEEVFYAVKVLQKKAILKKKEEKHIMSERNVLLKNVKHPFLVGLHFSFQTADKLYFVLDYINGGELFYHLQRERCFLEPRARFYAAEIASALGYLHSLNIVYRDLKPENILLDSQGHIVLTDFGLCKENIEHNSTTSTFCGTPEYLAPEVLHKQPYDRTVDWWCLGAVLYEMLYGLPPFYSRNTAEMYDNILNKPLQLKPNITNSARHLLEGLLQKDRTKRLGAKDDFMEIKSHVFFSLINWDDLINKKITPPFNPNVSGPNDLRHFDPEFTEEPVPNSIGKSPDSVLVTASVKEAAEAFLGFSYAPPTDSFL
As to conditions: 100 μM compound, 20 μM ATP; read-out: Kinase activity, % of activity in the absence of inhibitor. In short, it runs like this:
(§1)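 CoA, dpCoA and ADP were each tested in vitro, in duplicate, at 100 μM final concentration as part of a 117-kinase panel. Recombinant kinases were used with model substrates and optimal ATP concentrations.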

For another assay, the target named is MKK1 (Homo sapiens, UniProt Q02750). As to conditions: 100 μM compound, 5 μM ATP; read-out: Kinase activity, % of activity in the absence of inhibitor. The method in brief:
as §1

In the next assay the target is DYRK1A (Homo sapiens, UniProt Q13627). The settings on record: 100 μM compound, 50 μM ATP; read-out: Kinase activity, % of activity in the absence of inhibitor. The method in brief:
as §1

The target of another assay is MAPKAP-K2 (Homo sapiens, UniProt P49137). As to conditions: 100 μM compound, 20 μM ATP; read-out: Kinase activity, % of activity in the absence of inhibitor. The method in brief:
as §1

In a further assay the target is EPH-A4 (Homo sapiens, UniProt P54764). As to conditions: 100 μM compound, 50 μM ATP; read-out: Kinase activity, % of activity in the absence of inhibitor. The method in brief:
as §1

Another assay concerns the target MELK (Homo sapiens, UniProt Q14680). As to conditions: 100 μM compound, 50 μM ATP; read-out: Kinase activity, % of activity in the absence of inhibitor. In short, it runs like this: as §1
A further assay concerns the target CK2α (Homo sapiens, UniProt P68400). As to conditions: 100 μM compound, 5 μM ATP; read-out: Kinase activity, % of activity in the absence of inhibitor. The method in brief:
as §1

Another assay concerns the target PLK1 (Homo sapiens, UniProt P53350). The settings on record: 100 μM compound, 5 μM ATP; read-out: Kinase activity, % of activity in the absence of inhibitor. In short, it runs like this:
as §1

The target of a further assay is PAK2 (Homo sapiens, UniProt Q13177). As to conditions: 100 μM compound, 20 μM ATP; read-out: Kinase activity, % of activity in the absence of inhibitor. The method in brief: as §1
Chain of PAK2 (Q13177 whole entry): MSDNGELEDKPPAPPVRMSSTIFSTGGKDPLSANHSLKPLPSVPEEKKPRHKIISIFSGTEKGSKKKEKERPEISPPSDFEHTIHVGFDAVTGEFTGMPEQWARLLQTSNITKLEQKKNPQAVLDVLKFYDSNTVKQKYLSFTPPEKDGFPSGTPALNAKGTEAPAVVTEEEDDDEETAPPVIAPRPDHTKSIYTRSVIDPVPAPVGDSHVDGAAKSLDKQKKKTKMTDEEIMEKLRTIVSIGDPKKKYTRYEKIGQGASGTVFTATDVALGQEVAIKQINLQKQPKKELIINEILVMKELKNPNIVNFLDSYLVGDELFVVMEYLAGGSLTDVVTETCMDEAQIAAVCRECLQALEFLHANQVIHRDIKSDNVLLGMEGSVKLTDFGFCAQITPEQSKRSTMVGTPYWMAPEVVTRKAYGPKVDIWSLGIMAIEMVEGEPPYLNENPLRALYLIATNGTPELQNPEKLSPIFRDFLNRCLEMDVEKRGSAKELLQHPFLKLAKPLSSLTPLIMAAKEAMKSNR
Another assay concerns the target STK33 (Homo sapiens, UniProt Q9BYT3). The settings on record: 100 μM compound, 50 μM ATP; read-out: Kinase activity, % of activity in the absence of inhibitor. The method in brief:
as §1

The next assay has as its target T2, p38γ MAPK (Homo sapiens, UniProt P53778).
T2 sequence (P53778 1-367): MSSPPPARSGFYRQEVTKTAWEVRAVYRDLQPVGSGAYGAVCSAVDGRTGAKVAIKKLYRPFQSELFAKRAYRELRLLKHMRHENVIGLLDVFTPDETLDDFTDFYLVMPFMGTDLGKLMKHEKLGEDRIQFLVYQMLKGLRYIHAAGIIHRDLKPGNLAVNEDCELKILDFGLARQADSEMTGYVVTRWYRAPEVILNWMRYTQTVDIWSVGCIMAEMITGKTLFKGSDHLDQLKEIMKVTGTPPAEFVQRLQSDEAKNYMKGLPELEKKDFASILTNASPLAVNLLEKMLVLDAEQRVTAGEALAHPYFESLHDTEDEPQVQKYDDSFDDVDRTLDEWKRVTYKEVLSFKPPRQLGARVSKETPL
As to conditions: 100 μM compound, 5 μM ATP; read-out: Kinase activity, % of activity in the absence of inhibitor. In short, it runs like this:
as §1

In the next assay the target is Lck (Homo sapiens, UniProt P06239). As to conditions: 100 μM compound, 50 μM ATP; read-out: Kinase activity, % of activity in the absence of inhibitor. In short, it runs like this:
as §1

Another assay concerns the target NEK6 (Homo sapiens, UniProt Q9HC98). The settings on record: 100 μM compound, 50 μM ATP; read-out: Kinase activity, % of activity in the absence of inhibitor. The method in brief:
as §1

Another assay concerns the target T3, TBK1 (Homo sapiens, UniProt Q9UHD2).
T3 sequence (Q9UHD2 1-729): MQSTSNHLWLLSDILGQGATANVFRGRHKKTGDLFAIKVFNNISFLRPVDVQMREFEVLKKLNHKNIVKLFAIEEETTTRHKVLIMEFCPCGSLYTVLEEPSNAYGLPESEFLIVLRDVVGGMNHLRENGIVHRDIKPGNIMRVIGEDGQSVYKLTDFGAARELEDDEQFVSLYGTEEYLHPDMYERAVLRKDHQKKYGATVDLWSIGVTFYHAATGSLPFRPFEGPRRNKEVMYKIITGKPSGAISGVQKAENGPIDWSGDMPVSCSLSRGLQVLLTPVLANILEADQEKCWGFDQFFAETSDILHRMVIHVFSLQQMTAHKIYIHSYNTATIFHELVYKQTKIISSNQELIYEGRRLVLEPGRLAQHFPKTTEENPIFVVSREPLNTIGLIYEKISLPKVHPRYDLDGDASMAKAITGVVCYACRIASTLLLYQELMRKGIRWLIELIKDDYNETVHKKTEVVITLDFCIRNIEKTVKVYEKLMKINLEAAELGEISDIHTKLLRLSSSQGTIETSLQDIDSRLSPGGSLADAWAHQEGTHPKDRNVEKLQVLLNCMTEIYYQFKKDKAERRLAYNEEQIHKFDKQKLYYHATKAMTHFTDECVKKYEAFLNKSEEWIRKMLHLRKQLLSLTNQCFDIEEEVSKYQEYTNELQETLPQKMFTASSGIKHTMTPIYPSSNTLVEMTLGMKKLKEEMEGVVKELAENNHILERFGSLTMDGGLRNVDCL
The settings on record: 100 μM compound, 50 μM ATP; read-out: Kinase activity, % of activity in the absence of inhibitor. The method in brief: as §1

The target in the next assay is MNK2 (Homo sapiens, UniProt Q9HBH9). The settings on record: 100 μM compound, 50 μM ATP; read-out: Kinase activity, % of activity in the absence of inhibitor. In short, it runs like this: as §1
Chain of MNK2 (Q9HBH9 whole entry): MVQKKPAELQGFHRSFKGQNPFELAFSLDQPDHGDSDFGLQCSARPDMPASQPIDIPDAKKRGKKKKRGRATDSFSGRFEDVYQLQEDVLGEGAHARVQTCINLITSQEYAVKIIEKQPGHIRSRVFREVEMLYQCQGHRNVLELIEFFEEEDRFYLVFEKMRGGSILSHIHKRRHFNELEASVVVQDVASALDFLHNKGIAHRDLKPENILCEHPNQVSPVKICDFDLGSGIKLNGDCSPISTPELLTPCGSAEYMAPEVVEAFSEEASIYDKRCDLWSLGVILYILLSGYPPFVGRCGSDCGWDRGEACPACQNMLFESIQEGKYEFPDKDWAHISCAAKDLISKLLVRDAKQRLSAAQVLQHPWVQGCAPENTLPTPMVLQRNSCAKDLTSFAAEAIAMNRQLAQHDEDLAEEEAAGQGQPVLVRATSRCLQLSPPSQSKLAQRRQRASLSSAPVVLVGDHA
In another assay the target is ABL (Homo sapiens, UniProt P00519). As to conditions: 100 μM compound, 5 μM ATP; read-out: Kinase activity, % of activity in the absence of inhibitor. The method in brief: as §1
Chain of ABL (P00519 whole entry): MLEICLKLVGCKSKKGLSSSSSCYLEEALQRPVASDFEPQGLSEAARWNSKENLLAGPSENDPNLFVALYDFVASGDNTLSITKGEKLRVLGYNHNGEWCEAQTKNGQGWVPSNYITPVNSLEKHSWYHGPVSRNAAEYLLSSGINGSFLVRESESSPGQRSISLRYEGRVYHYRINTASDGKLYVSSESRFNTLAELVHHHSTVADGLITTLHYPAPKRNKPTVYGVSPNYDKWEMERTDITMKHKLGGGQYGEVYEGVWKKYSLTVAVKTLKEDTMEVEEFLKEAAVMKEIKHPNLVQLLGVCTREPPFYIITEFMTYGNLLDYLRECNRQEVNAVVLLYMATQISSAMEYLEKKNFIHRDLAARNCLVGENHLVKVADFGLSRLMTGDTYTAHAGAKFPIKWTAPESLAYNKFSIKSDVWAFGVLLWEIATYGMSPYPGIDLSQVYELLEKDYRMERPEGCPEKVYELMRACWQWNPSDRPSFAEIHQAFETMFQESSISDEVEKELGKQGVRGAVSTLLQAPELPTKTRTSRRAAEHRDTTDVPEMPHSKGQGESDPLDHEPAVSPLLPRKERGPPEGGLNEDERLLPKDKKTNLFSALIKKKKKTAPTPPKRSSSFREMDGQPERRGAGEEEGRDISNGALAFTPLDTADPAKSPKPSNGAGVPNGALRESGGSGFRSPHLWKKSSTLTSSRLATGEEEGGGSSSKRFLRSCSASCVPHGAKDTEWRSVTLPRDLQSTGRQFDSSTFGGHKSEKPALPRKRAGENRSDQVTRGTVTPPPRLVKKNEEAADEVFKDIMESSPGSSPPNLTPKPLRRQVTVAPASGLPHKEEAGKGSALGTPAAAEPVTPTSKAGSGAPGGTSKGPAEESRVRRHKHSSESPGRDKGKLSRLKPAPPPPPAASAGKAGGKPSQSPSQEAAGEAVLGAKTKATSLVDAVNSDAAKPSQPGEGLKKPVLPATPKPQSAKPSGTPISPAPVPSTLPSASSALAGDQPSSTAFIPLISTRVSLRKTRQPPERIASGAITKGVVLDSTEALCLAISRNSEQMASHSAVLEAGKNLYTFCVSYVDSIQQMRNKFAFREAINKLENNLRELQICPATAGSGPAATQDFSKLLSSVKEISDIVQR
For another assay, the target named is PAK4 (Homo sapiens, UniProt O96013). As to conditions: 100 μM compound, 5 μM ATP; read-out: Kinase activity, % of activity in the absence of inhibitor. The method in brief: as §1
Chain of PAK4 (O96013 whole entry): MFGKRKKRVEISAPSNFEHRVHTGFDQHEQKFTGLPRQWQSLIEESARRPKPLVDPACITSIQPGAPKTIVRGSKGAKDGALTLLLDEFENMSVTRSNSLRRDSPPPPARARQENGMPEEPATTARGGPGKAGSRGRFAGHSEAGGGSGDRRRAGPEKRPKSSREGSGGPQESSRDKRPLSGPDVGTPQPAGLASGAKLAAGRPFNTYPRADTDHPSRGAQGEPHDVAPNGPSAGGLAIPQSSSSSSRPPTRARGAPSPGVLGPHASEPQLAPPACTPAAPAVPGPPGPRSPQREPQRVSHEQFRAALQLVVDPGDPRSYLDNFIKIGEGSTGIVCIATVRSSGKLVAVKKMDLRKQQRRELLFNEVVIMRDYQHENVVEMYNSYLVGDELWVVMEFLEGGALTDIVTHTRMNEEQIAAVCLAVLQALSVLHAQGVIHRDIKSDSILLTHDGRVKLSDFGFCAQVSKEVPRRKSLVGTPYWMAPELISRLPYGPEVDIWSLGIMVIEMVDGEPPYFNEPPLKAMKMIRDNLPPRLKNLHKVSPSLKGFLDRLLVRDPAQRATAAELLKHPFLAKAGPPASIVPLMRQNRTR
The target in another assay is RIPK2 (Homo sapiens, UniProt O43353). The settings on record: 100 μM compound, 20 μM ATP; read-out: Kinase activity, % of activity in the absence of inhibitor. In short, it runs like this:
as §1

Chain of Lck (P06239 whole entry): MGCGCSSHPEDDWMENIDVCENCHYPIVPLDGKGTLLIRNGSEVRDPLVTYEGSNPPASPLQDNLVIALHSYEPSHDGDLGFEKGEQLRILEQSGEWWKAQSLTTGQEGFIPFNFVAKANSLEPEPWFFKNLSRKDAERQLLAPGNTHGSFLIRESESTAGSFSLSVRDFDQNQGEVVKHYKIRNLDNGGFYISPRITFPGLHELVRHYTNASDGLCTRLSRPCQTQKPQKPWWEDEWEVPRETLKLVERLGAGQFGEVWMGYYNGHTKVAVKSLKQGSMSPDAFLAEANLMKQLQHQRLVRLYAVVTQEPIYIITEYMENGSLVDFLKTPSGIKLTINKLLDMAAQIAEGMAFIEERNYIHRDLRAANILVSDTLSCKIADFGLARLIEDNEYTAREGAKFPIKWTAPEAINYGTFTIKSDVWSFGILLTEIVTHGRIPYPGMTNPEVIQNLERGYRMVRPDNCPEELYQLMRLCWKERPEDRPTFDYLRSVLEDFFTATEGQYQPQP
Chain of MAPKAP-K2 (P49137 whole entry): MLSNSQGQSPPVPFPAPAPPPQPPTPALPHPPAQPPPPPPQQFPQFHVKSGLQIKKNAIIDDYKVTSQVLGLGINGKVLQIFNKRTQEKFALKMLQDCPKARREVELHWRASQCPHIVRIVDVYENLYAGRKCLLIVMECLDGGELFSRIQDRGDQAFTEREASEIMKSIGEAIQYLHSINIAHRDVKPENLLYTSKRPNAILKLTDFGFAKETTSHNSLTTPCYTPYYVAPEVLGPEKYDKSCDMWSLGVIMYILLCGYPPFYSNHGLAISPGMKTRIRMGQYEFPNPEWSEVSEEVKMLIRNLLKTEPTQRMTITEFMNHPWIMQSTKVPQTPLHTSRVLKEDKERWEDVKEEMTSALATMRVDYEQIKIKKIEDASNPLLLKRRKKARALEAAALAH
Chain of NEK6 (Q9HC98 whole entry): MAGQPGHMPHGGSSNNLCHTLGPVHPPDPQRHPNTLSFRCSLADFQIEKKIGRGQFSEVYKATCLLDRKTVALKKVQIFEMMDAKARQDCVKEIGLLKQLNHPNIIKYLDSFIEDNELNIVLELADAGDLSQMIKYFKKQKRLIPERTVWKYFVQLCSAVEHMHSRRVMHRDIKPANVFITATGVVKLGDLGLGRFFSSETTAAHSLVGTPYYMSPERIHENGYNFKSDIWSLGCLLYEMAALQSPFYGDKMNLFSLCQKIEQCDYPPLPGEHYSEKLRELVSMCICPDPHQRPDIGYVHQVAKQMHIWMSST
Chain of STK33 (Q9BYT3 whole entry): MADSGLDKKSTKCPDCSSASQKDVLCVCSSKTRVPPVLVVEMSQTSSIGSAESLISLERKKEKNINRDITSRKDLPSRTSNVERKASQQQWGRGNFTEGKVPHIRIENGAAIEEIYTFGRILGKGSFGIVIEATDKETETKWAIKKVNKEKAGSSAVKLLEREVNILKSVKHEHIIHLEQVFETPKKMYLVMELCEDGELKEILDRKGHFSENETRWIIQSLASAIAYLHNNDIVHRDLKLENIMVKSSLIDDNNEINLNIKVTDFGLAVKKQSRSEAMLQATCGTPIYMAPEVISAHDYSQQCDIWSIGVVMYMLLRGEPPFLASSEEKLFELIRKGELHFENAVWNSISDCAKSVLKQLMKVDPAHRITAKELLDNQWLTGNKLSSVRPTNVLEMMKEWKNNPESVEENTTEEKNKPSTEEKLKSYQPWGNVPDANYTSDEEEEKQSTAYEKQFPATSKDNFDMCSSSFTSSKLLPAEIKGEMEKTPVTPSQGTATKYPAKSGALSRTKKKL
Chain of RIPK2 (O43353 whole entry): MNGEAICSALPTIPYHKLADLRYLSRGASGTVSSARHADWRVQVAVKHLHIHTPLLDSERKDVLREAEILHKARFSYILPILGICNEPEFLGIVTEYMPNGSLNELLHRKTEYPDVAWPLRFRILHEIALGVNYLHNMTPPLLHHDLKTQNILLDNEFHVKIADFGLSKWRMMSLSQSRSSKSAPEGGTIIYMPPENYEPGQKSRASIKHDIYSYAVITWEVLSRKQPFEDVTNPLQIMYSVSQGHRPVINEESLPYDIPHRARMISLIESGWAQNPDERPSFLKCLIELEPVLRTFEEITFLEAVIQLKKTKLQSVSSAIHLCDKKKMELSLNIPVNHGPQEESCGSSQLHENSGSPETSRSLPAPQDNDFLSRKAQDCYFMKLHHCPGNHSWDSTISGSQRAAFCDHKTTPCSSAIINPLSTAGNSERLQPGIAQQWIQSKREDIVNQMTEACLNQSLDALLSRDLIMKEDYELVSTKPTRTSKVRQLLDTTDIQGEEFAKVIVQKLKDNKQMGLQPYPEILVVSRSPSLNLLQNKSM

Consider `Nc1ncnc2c1ncn2C1OC(COP(=O)(O)OP(=O)(O)O)C(O)C1O` (stereo not drawn) [ADP], for which the activity at 100 µM at SGK1 stood at 38.7%; at MKK1, 16.4%; on DYRK1A, 75.9%; at MAPKAP-K2, 53%; on EPH-A4, 32.5%; on MELK, 63.5%. The activity at 100 µM on CK2α was found to be 5.4%; at PLK1, 52.2%; on PAK2, 90.3%; on STK33, 54.6%; at p38γ MAPK it was 26%; on Lck it was 35.1%. Also, the activity at 100 µM on NEK6 is 26.6%; on TBK1 it was 95.1%; on MNK2 it was 41.2%; on ABL it was 22.9%; on PAK4 it was 73.8%; on RIPK2, 46%.

Take `CC(C)(COP(=O)(O)OP(=O)(O)OC[C@H]1O[C@@H](n2cnc3c(N)ncnc32)[C@H](O)[C@@H]1OP(=O)(O)O)[C@@H](O)C(=O)NCCC(=O)NCCS` [CoA, Coenzyme A]: the activity at 100 µM was determined as 103% on SGK1; 107% on MKK1; 93.1% on DYRK1A; 93.1% at MAPKAP-K2; 115% at EPH-A4; 76.3% on MELK. The activity at 100 µM was found to be 80.1% on CK2α; 101% on PLK1; 88.8% at PAK2; 71.8% on STK33; 127% on p38γ MAPK; 100% at Lck. In addition, the activity at 100 µM on NEK6 stood at 118%; on TBK1, 106%; on MNK2, 138%; at ABL, 111%; on PAK4, 69.9%; at RIPK2 it was 131%.

Take `CC(C)(COP(=O)(O)OP(=O)(O)OCC1OC(n2cnc3c(N)ncnc32)C(O)C1O)C(O)C(=O)NCCC(=O)NCCS` (stereo not drawn) [dpCoA, dephospho-CoA]: the activity at 100 µM amounted to 74.3% on SGK1; 52.3% on MKK1; 90.2% at DYRK1A; 81.7% on MAPKAP-K2; 75.6% on EPH-A4; 104% on MELK. Besides, the activity at 100 µM on CK2α was 39.8%; on PLK1, 100%; at PAK2, 112%; at STK33 it was 83.3%; at p38γ MAPK it was 65.9%; at Lck, 69%. Further, the activity at 100 µM is 69.6% on NEK6; 110% on TBK1; 87.1% on MNK2; 98% on ABL; 75.9% on PAK4; 88.4% at RIPK2.

The values above are taken from paper PMC6812009, “Covalent Aurora A regulation by the metabolic integrator coenzyme A” (Redox Biology, 2019).
